Data: PubChem BioAssay (NCI)
Values joined by “and” are separate entries in the source; they are usually repeats but may differ in a detail not shown here. Equal entries are not always repeated.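 Cultured in 96-well plates, cells were exposed to test compound for 48 hours across five concentrations. Here, GI50 denotes the concentration required for 50% inhibition of growth. TGI denotes the concentration required for complete inhibition of growth.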

How the values were obtained:
Experiment in all cases: NCI anticancer screen, dose series, 48 h
786-0 renal = tested on: 786-0 renal
EKVX NSCLC = tested on: EKVX NSCLC
HCT-15 colon = tested on: HCT-15 colon
KM12 colon = tested on: KM12 colon
LOX IMVI melanoma = tested on: LOX IMVI melanoma
MALME-3M melanoma = tested on: MALME-3M melanoma
MCF7 breast = tested on: MCF7 breast
OVCAR-4 ovarian = tested on: OVCAR-4 ovarian
SK-MEL-2 melanoma = tested on: SK-MEL-2 melanoma
SW-620 colon = tested on: SW-620 colon

SMILES	GI50 (786-0 renal)	TGI (786-0 renal)	GI50 (EKVX NSCLC)	TGI (EKVX NSCLC)	GI50 (HCT-15 colon)	TGI (HCT-15 colon)	GI50 (KM12 colon)	TGI (KM12 colon)	GI50 (LOX IMVI melanoma)	TGI (LOX IMVI melanoma)	GI50 (MALME-3M melanoma)	TGI (MALME-3M melanoma)	GI50 (MCF7 breast)	TGI (MCF7 breast)	GI50 (OVCAR-4 ovarian)	TGI (OVCAR-4 ovarian)	GI50 (SK-MEL-2 melanoma)	TGI (SK-MEL-2 melanoma)	GI50 (SW-620 colon)	TGI (SW-620 colon)
CCn1c(SC)nnc1-c1cc2c([nH]c3ccccc32)c(-c2cccc(O)c2)n1	2.77 µM	10.9 µM	3.02 µM	26.2 µM	0.95 µM	51.6 µM	3 µM	44.7 µM	2.51 µM	29.1 µM	1.37 µM	9.58 µM	0.995 µM	25.2 µM	2.75 µM	13 µM	1.88 µM	7.6 µM	1.44 µM	> 100 µM
O=NNc1nc(-c2ccccn2)nc2ccccc12		39.9 µM		> 100 µM		14.7 µM		> 100 µM				19.6 µM		> 100 µM		> 100 µM		39.5 µM		27.7 µM
Cc1cc(C2(c3cc(C)c(O)c4ncccc34)OC(=O)c3ccccc32)c2cccnc2c1O	0.114 µM	> 100 µM	0.0124 µM					> 100 µM		> 100 µM		> 100 µM		> 100 µM		> 100 µM	0.117 µM	> 100 µM	0.0521 µM	> 100 µM
O=C(NCc1cccnc1)c1ccc([N+](=O)[O-])o1	2.9 µM	16.6 µM	13.3 µM	> 32.5 µM	0.647 µM	1.76 µM	1.32 µM	5.32 µM	1.2 µM	6.58 µM	1.56 µM	7.88 µM	0.973 µM	5.21 µM	6.22 µM	> 19.8 µM	4.91 µM	14.4 µM	1.47 µM	5.58 µM
N#Cc1c(N/N=C/c2c(Cl)cccc2Cl)nc(N)nc1N1CCCC1	3.93 µM	> 100 µM	39.7 µM	> 100 µM	0.645 µM	20 µM	3.02 µM	> 100 µM	2.16 µM	> 100 µM			5.8 µM	> 100 µM	> 100 µM	> 100 µM	5.55 µM	> 100 µM	1.38 µM	> 100 µM
C/C(=N\NC(=O)c1ccncc1)c1ccccc1O	2.94 µM	21.3 µM	2.34 µM	> 100 µM	0.828 µM	> 100 µM	2.95 µM	> 100 µM	1.46 µM	> 100 µM	5.39 µM	97.3 µM	3.72 µM	> 100 µM	1.94 µM	> 100 µM	> 100 µM	> 100 µM	5.27 µM	> 100 µM
Cc1cc2c(SCc3ccccc3Cl)nc(N)nc2nc1C		> 100 µM		> 100 µM		> 100 µM		> 100 µM		> 100 µM		> 100 µM		> 100 µM		> 100 µM		> 100 µM		> 100 µM
CC(C)c1nc(Cl)c(Cl)c(Cl)n1		16.1 µM		29.1 µM		17.7 µM		23.3 µM		1.71 µM		19 µM		14.2 µM		39.1 µM				15.6 µM
CN1CCN(Cc2ccc(NC(=O)c3cncc(C#Cc4cnc5cccnn45)c3)cc2C(F)(F)F)CC1	1.14 µM	2.73 µM	1.19 µM	3.49 µM	1.47 µM	5.3 µM	0.00863 µM	2.41 µM	1.07 µM	2.98 µM	0.595 µM	1.42 µM	0.707 µM	4.77 µM	0.732 µM	3.68 µM	0.639 µM	1.71 µM	0.981 µM	4.34 µM
Oc1ccc(CCNc2nc3ccccc3c3[nH]c4ccccc4c23)cc1	1.29 µM	2.69 µM	1.91 µM	3.95 µM	1.16 µM	2.93 µM	1.2 µM	2.98 µM			1.79 µM	3.46 µM	1.37 µM	3.16 µM	1.66 µM	3.15 µM	1.73 µM	3.36 µM		
CC(C)C12CCC3(CCC4C(C)(C(=O)O)CCCC4(C)C3C1)C(CN)C2 (stereo not drawn)		54.4 µM		62 µM		> 100 µM		> 100 µM		34.7 µM		> 100 µM		> 100 µM		> 100 µM		> 100 µM		> 100 µM
CCNc1nc(-c2ccc(Cl)c(OC)c2)c(-c2ccnc(NCCNS(=O)(=O)c3ccc(Cl)cc3)n2)s1	3.46 µM	13.9 µM	3.74 µM	> 100 µM	3.36 µM	> 100 µM	3.52 µM	> 100 µM	2.32 µM	5.69 µM	2.2 µM	7.39 µM	3.03 µM	> 100 µM	3.82 µM	> 100 µM	2 µM	4.41 µM	4.22 µM	> 100 µM
O=C1COc2c(CCNCCN(C(=O)CCNCCc3ccc(Cl)c(Cl)c3)C3CCCCC3)ccc(O)c2N1	17.2 µM	32.9 µM	15.4 µM	30 µM	15.7 µM	31.2 µM	19 µM	35.5 µM	15.6 µM	30.2 µM	21.9 µM	39.6 µM	11.9 µM	27.8 µM	15 µM	28.9 µM	17.2 µM	34.9 µM	16 µM	31 µM
CCC(=C(c1ccc(OCCN(CC)CC)cc1)c1ccc(OCCN(CC)CC)cc1)c1ccc(Cl)cc1	0.565 µM	1.08 µM	0.641 µM	1.46 µM	0.541 µM	1.08 µM	0.611 µM	1.18 µM	0.55 µM	1.03 µM	0.567 µM	1.07 µM	0.347 µM	0.861 µM	0.714 µM	1.66 µM	0.634 µM	1.27 µM	0.572 µM	1.12 µM
CC(=O)Nc1ccc(C(=O)COc2cccc(/C=C3\CCc4ccccc4C3=O)c2)cc1	26.5 µM	> 100 µM	14.3 µM	68.7 µM	11.2 µM	32 µM	4.92 µM	18.1 µM	6.59 µM	25.4 µM	15.8 µM	39.5 µM	2.9 µM	19 µM	1.01 µM	26.1 µM	14.8 µM	65.8 µM	3.65 µM	15 µM
COc1cc2nccc(Oc3ccc(NC(=O)C4(C(=O)Nc5ccc(F)cc5)CC4)cc3)c2cc1OC	> 10 µM and 5.52 µM	> 54.9 µM	> 10 µM and 6.98 µM	> 10 µM and 97.3 µM	> 10 µM and 3.94 µM	> 100 µM	0.333 µM and 0.0482 µM	> 100 µM	6.11 µM and 2.61 µM	> 10 µM and 15.2 µM	> 10 µM and 2.11 µM	> 10 µM and 9.17 µM	> 10 µM and 4.06 µM	> 54.2 µM	> 10 µM and 3.79 µM	> 62.6 µM	> 10 µM and 7.13 µM	> 10 µM and 27.9 µM	9.09 µM and 2.38 µM	> 34.5 µM
Cc1c(-c2ccc(N3CCc4cccc(C(=O)Nc5nc6ccccc6s5)c4C3)nc2C(=O)O)cnn1CC12CC3CC(CC(C3)C1)C2	3.65 µM	12.4 µM	8.62 µM	28.3 µM	6.08 µM	19.9 µM	4.97 µM	20.6 µM	5.92 µM	23.4 µM	14.3 µM	33.7 µM	10.8 µM	29.4 µM	6.72 µM	33.2 µM	3.1 µM	20.5 µM	8.54 µM	37.1 µM
COc1cc([C@H]2c3cc(O)c(OC)cc3C[C@]3(O)[C@@H]2CO[C@@H]3O)ccc1O		> 100 µM		> 100 µM		> 100 µM		> 100 µM		> 100 µM				> 100 µM		> 100 µM		> 100 µM		> 100 µM
Cc1cccc(Cc2cnc(NC(=O)CCCOc3ccc(Cl)cc3)s2)c1	5.95 µM	> 100 µM	45 µM	> 100 µM	3.56 µM	> 100 µM	4.53 µM	> 100 µM	6.8 µM	> 100 µM	5.38 µM	> 100 µM	3.16 µM	> 100 µM	3.71 µM	> 100 µM	> 100 µM	> 100 µM	3.39 µM	> 100 µM
COc1ccc(C[C@H](N)C(=O)N[C@@H]2[C@@H](CO)OC(n3cnc4c(N(C)C)ncnc43)[C@@H]2O)cc1 (stereo partly drawn)		1.24 µM	0.614 µM	2.55 µM	6.63 µM	29.9 µM	0.363 µM	1.08 µM	0.202 µM	0.839 µM	0.637 µM	1.39 µM	0.152 µM	0.621 µM	0.194 µM	0.926 µM		1.23 µM		0.792 µM
O=C(c1ccccc1)c1ccc(N2C(=O)C3C4c5ccccc5C(/C=C/C(=O)c5ccccn5)(c5ccccc54)C3C2=O)cc1 (stereo not drawn)	2.55 µM	6.85 µM	3.02 µM	39 µM	1.69 µM	4.4 µM	1.88 µM	4.39 µM	1.56 µM	3.51 µM	2.33 µM	6.48 µM	1.77 µM	> 100 µM	4.3 µM	> 100 µM	3.07 µM	15.4 µM	2.82 µM	> 100 µM
ClCc1ccc(Cn2cnc3nc(Cl)nc(Cl)c32)cc1	0.417 µM	0.89 µM	0.704 µM	1.88 µM	0.481 µM	1.03 µM	0.677 µM	1.48 µM	0.487 µM	1.23 µM	1.6 µM	3.24 µM	0.663 µM	2.36 µM	1.57 µM	3.03 µM	1.41 µM	3.06 µM	1.47 µM	3.28 µM
Cc1ccc(S(=O)(=O)NCc2cccc([N+](=O)[O-])c2)cc1		> 100 µM		> 100 µM		> 100 µM		> 100 µM		> 100 µM		> 100 µM		> 100 µM		> 100 µM		> 100 µM		> 100 µM
O=C1OC(c2ccccc2)=N/C1=C\c1ccc(N(CCCl)CCCl)cc1		> 100 µM		> 100 µM		> 100 µM		> 100 µM		> 100 µM		> 100 µM		> 100 µM		> 100 µM		> 100 µM		> 100 µM
COc1ccc(S(=O)(=O)NCCCNc2nccc(-c3c(-c4ccc(F)cc4)nc4sccn34)n2)cc1	5.83 µM	> 100 µM			3.6 µM	> 100 µM	5.07 µM	> 100 µM	5.53 µM	> 100 µM	5.78 µM	> 100 µM	2.74 µM	> 100 µM	3.07 µM	27.2 µM	12.4 µM	50.3 µM	24 µM	> 100 µM
Cn1c(=O)c(Oc2ccc(F)cc2F)cc2cnc(NC3CCC(O)CC3)nc21 (stereo not drawn)	> 25 µM	> 25 µM			> 25 µM	> 25 µM	> 25 µM	> 25 µM	> 25 µM	> 25 µM	> 25 µM	> 25 µM	> 25 µM	> 25 µM	> 25 µM	> 25 µM	> 25 µM	> 25 µM	> 25 µM	> 25 µM
C=CCCC1(CCP(=O)(c2ccccc2)c2ccccc2)OCCO1		> 100 µM		> 100 µM		> 100 µM		> 100 µM		> 100 µM		> 100 µM		> 100 µM				> 100 µM		> 100 µM
COc1cc(-c2nn(-c3cccc(NC(=O)c4cccc(C(F)(F)F)c4)c3)cc2-c2ccncc2)ccc1Cl	2.45 µM	> 50 µM			1.55 µM	> 50 µM	1.66 µM	> 50 µM	1.39 µM	> 50 µM	1.89 µM	> 50 µM	1.43 µM	> 50 µM	2.28 µM	> 50 µM	1.56 µM	> 50 µM	2.31 µM	> 50 µM
